Source: patent publication US20240041050A1, “CELL PENETRATING PEPTIDE MEDIATED RNA TRANSDUCTION WITHIN INSECT CELLS” (PIONEER HI-BRED INTERNATIONAL, INC., priority 2020, published 2024)
Ends that are not written are not given here.

How the values were obtained:
[1] = system: western corn rootworm (WCR) larvae; assay: Oral toxicity screening of CPPs in artificial diet; assay type: in vivo; conditions: first instar WCR larvae; for Affected (%): mortality and stunting
Protocol: Briefly, CPPs were incorporated into standard WCR artificial diet in 96-well microtiter plate format. A 25 μL aliquot of dosing solution was combined with 75 μL molten low-melt WCR diet and shaken on an orbital shaker to mix. Once diet solidified, preconditioned first instar WCR (freshly-hatched insects placed on neutral diet for 24 hours prior to transfer to test diet) were added to the diet plates at a rate of 1 insect·well^−1. Plates were placed inside an incubator (Percival Scientific, Inc., Perry, IA) set to 27° C., 65% RH, and a 24-hour dark cycle. The assay was scored for mortality and stunting affects after 7 and 12 days, without diet refresh, on a 0-3 scale, where 3=mortality, 2=severe stunting, 1=stunting, 0=no affect when compared with untreated larvae. The assay was repeated three times and end-results were tabulated using all three replicates and converted to percentages (Table 5).

Sf9 cells = assay: CPP-mediated delivery of mCherry mRNA cargo into insect cells; assay type: cell-based, Spodoptera frugiperda; conditions: complex of 75 μM unlabeled CPP and 10 μg mCherry mRNA, overnight
Description: (§1) Sample preparation and analysis methods were based on those previously reported (Jafari et al. (201 4) “Serum stability and physicochemical characterization of a novel amphipathic peptide C6M 1 for siRNA delivery”, PLoS One, 9(5), e97797; and Gillet et al. (2017) “Investigating Engineered Ribonucleoprotein Particles to Improve Oral RNAi Delivery in Crop Insect Pests”, Frontiers in Physiology, 8(256), doi: 10.3389/fphys.2017.00256). Reagents are described in Examples 1 and 2. Nanocomplex samples were prepared in one of several ways, depending on type of CPP, RNA, or assay. […] Reaction volumes added to cells were 6.38 μL CPP and 6.38 μL mRNA. Final optimal CPP concentration was assessed by amount of fluorescent signal apparent within cells. For insect cell-based assays with CPP-YFP·Cy3-dsRNA or CPP·dsRNA, first a complex formation solution was prepared in molecular biology-grade water containing 90 mg·mL^−1 maltose, 9 mg·mL^−1 mannitol, 392. 16 mM CaCI2, pH 7.0, and vacuum-filtered using Corning™ Disposable Vacuum Filter and Storage System containing a cellulose nitrate filter. Then, increasing amounts of CPP-YFP were added to Cy3-dsRNA, from a molar ratio (CPP-YFP:Cy3-dsRNA) of 1:4 through 8:1 and incubated protected from light at 25° C. for 90 minutes prior to assessment via gel shift and DLS. Reaction volumes added per cell well were comprised of 17 μL reaction solution, 1 μL CPP, 1 μL dsRNA, and 1 μL molecular biology grade water; reaction sizes for larger total volumes were increased in increments of 20 μL and component ratio was held constant to maintain an ionic strength of […]. Final optimal molar ratio selected for cell experiments were determined by increase of the apparent size of the Cy3-dsRNA band on a native agarose gel (FIG. 2A and FIG. 2B), and/or appearance and increase in size of the complex peak detected by a Zetasizer Ultra (Malvern Panalytical, Malvern, United Kingdom) DLS instrument (FIG. 2C). […] Final optimal BAPC1 concentration was assessed by amount of fluorescent signal apparent within cells. […]

DU182A cells = assay: as above; assay type: cell-based, Diabrotica undecimpunctata; conditions: complex of 75 μM unlabeled CPP and 10 μg mCherry mRNA, overnight
Description: as §1

DvWL2 cells = assay: as above; assay type: cell-based, Diabrotica virgifera virgifera; conditions: complex of 75 μM unlabeled CPP and 10 μg mCherry mRNA, overnight
Description: as §1

Compound | Affected (%) ([1]; 0.195 ppm in artificial diet) | Affected (%) ([1]; 0.391 ppm in artificial diet) | Affected (%) ([1]; 0.781 ppm in artificial diet) | Affected (%) ([1]; 1.56 ppm in artificial diet) | Affected (%) ([1]; 3.13 ppm in artificial diet) | Affected (%) ([1]; 6.25 ppm in artificial diet) | Affected (%) ([1]; 12.5 ppm in artificial diet) | Affected (%) ([1]; 25.0 ppm in artificial diet) | Affected (%) ([1]; 50.0 ppm in artificial diet) | Affected (%) ([1]; 100 ppm in artificial diet) | Affected (%) ([1]; 200 ppm in artificial diet) | fluorescent protein translated from delivered mCherry mRNA (fluorescent signal inside cells) (Sf9 cells) | fluorescent protein translated from delivered mCherry mRNA (fluorescent signal inside cells) (DU182A cells) | fluorescent protein translated from delivered mCherry mRNA (fluorescent signal inside cells) (DvWL2 cells) | Mortality (%) ([1]; 0.195 ppm in artificial diet) | Mortality (%) ([1]; 0.391 ppm in artificial diet) | Mortality (%) ([1]; 0.781 ppm in artificial diet) | Mortality (%) ([1]; 1.56 ppm in artificial diet) | Mortality (%) ([1]; 3.13 ppm in artificial diet) | Mortality (%) ([1]; 6.25 ppm in artificial diet) | also measured
CSCC[C@H](NC(=O)[C@@H](NC(=O)[C@H](CO)NC(=O)CNC(=O)[C@H](C)NC(=O)[C@H](C)NC(=O)CNC(=O)[C@H](CC(C)C)NC(=O)[C@H](Cc1ccccc1)NC(=O)CNC(=O)[C@H](CC(C)C)NC(=O)[C@H](Cc1ccccc1)NC(=O)[C@H](CC(C)C)NC(=O)[C@H](C)NC(=O)CN)[C@@H](C)O)C(=O)NCC(=O)N[C@@H](C)C(=O)N[C@@H](Cc1c[nH]c2ccccc12)C(=O)N[C@@H](CO)C(=O)N[C@@H](CCC(N)=O)C(=O)N1CCC[C@H]1C(=O)N[C@@H](CCCCN)C(=O)N[C@@H](CO)C(=O)N[C@@H](CCCCN)C(=O)N[C@@H](CCCNC(=N)N)C(=O)N[C@@H](CCCCN)C(=O)N[C@H](C(=O)O)C(C)C [MPG] | 0% | 0% | 0% | 0% | 0% | 0% | 0% | 0% | 0% | 0% | 0% | Translation of mRNA into a functional fluorescent protein occurred | Translation of mRNA into a functional fluorescent protein occurred | Translation of mRNA into a functional fluorescent protein occurred |  |  |  |  |  |  | 
KQINNWFINQRKRHWK [Knotted-1, KQINNWFINQRKRHWK] | 0% | 0% | 0% | 0% | 0% | 0% | 0% | 0% | 0% | 0% | 0% | Translation of mRNA into a functional fluorescent protein occurred | Translation of mRNA into a functional fluorescent protein occurred | Translation of mRNA into a functional fluorescent protein occurred | 0% | 0% | 0% | 0% | 0% | 0% | Mortality (%) ([1]; 12.5 ppm in artificial diet): 0%; Mortality (%) ([1]; 25.0 ppm in artificial diet): 0%; Mortality (%) ([1]; 50.0 ppm in artificial diet): 0%; Mortality (%) ([1]; 100 ppm in artificial diet): 0%; Mortality (%) ([1]; 200 ppm in artificial diet): 0%
VRLPPPVRLPPPLVRPPPL [VRLPPPVRLPPPLVRPPPL] | 0% | 0% | 0% | 0% | 0% | 0% | 0% | 0% | 0% | 0% | 0% |  |  |  | 0% | 0% | 0% | 0% | 0% | 0% | Mortality (%) ([1]; 12.5 ppm in artificial diet): 0%; Mortality (%) ([1]; 25.0 ppm in artificial diet): 0%; Mortality (%) ([1]; 50.0 ppm in artificial diet): 0%; Mortality (%) ([1]; 100 ppm in artificial diet): 0%; Mortality (%) ([1]; 200 ppm in artificial diet): 0%
